The data set can be described thus: Log P. The following applies: Log P (min), Table I.

Our source for the chromatographic logP values is patent US5559128A, “3-substituted piperidines promote release of growth hormone” (Merck & Co., Inc., priority 1995, dated 1996).

A word on the chromatographic logP: it is a lipophilicity value derived from retention on a column. For the compound `CC(C)(N)C(=O)N[C@H](Cc1c[nH]c2ccccc12)C(=O)N1CCCC(N(c2ccccc2)S(=O)(=O)c2ccccc2)C1` (single isomer, unassigned) [3b], the chromatographic logP was determined as 3.2.

As for `CC(C)(N)C(=O)N[C@H](Cc1c[nH]c2ccccc12)C(=O)N1CCCC(N(Cc2ccccc2)S(=O)(=O)c2ccccc2)C1` (some centres unmarked) [3a], the chromatographic logP was found to be 3.6.
